The values below come from patent publication US12409154B2, “Pharmaceutical compositions for use in treating pain” (TAIWAN LIPOSOME COMPANY, LTD., priority 2019, dated 2025).

The nature of data set [1]: pKa of ropivacaine and calculated uncharged fraction. Format: physicochemical. To be noted: pH 6.0; calculated from pKa. How it is done: In some embodiments, the lipid-based complex of the anesthetic composition is formed by hydrating a lyophilized lipid cake with a pharmaceutically acceptable buffer solution at a pH higher than 5.5. […] In some embodiments, the lipid cake according to the present disclosure is prepared by dissolving apolar ropivacaine, phospholipid, and cholesterol in a solvent system, e.g., tert-butanol alone or a tert-butanol/water cosolvent, followed by removing the solvent system using a lyophilization technique.

For data set [2], the system named is adult subjects following inguinal hernia repair surgery. As to the kind of experiment: Phase I/II study, single infiltrative local administration after inguinal hernia repair surgery: efficacy (NPRS pain, rescue analgesic use). Type of data set: in vivo, human. The note with it: TLC590 475 mg, ropivacaine group 150 mg. The source says: A Phase I/II, randomized, double-blind, comparator-controlled, dose-escalation study to assess the safety, PK, and efficacy of single postsurgical application of the anesthetic composition in accordance with the present disclosure (denoted as TLC590) compared with Naropin® via a single infiltrative local administration in adult subjects following inguinal hernia repair surgery. The study enrolled approximately 64 evaluable subjects who met all entry criteria across 4 cohorts. Dose escalation of a single postsurgical administration of TLC590 was performed using sequential dose levels, as compared with Naropin®. Dose-escalation were determined by review of […] (TEAEs) and all serious AEs (SAEs) by a safety monitoring committee (SMC). […] Pain intensity at rest and with movement assessed using an 11-point NPRS ranging from a score of 0 (no pain) to 10 (worst possible pain). • 2. […]

As to `CCCN1CCCC[C@H]1C(=O)Nc1c(C)cccc1C` [ropivacaine], the “theoretically uncharged ropivacaine, share of available ropivacaine” value in data set [1] is 0.8%. In data set [2], the “median time to first rescue analgesic” value is 13 h. Further, the “median time to first postsurgical opioid use” value in data set [2] (among those who used rescue opioid) was 3.3 h.
